Data reported in patent US20240228468A1, “N-(6-((OCTAHYDROCYCLOPENTA[C]PYRROL-5-YI)AMINO)PYRIDAZIN-3-YL)PHENYL)CARBOXAMIDE AND (6- ((OCTAHYDROCYCLOPENTA[C]PYRROL-5-YL)AMINO)PYRIDAZIN-3-YL)BENZAMIDE DERIVATIVES AS MACHR M4 ANTAGONISTS FOR THE TREATMENT OF NEURODEGENERATIVE DISORDERS” (Vanderbilt University, priority 2021, published 2024).

Biological target: T1, Human M4 (Homo sapiens, UniProt P08173)
T1 construct: expressed in transfected cells; host or cells: CHO-K1 (ATCC), co-transfected with chimeric G protein Gqi5
T1 sequence (P08173 1-479): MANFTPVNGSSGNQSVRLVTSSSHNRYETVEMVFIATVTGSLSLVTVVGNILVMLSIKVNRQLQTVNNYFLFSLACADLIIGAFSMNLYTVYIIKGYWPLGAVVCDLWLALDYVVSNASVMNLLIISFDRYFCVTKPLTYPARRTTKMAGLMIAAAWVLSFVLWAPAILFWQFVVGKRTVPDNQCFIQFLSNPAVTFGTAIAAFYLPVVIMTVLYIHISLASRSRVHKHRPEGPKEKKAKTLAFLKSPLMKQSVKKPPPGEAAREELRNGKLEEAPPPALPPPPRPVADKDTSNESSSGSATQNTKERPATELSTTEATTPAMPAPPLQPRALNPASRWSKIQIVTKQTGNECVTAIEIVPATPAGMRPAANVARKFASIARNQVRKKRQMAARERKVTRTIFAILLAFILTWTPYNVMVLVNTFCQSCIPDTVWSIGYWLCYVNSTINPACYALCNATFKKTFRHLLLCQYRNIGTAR
Test: mAChR M4 cell-based functional assay (calcium flux, antagonism of EC80 acetylcholine response)
Settings: M4/Gqi5/CHO-K1 cells; for IC50: concentration-dependent decrease of the response elicited by an EC80 concentration of acetylcholine; for remaining activity at 30 µM: read-out: Human M4 Emin (% ACh maximum at 30 μM)
Method: Human or rat M4 cDNA, along with the chimeric G protein Gqi5, were transfected into Chinese hamster ovary (CHO-K1) cells purchased from the American Type Culture Collection using Lipofectamine2000. M4/Gqi5/CHO cells were grown in Ham's F-12 medium containing 10% heat-inactivated fetal bovine serum (FBS), 20 mM HEPES, 500 μg/mL G418 sulfate, and 200 μg/mL Hygromycin B.
For high throughput measurement of agonist-evoked increases in intracellular calcium, CHO-K1 cells stably expressing muscarinic receptors were plated in growth medium lacking G418 and hygromycin at 15,000 cells/20 μL/well in Greiner 384-well black-walled, tissue culture (TC)-treated, clear-bottom plates (VWR). Cells were incubated overnight at 37° C. and 5% CO2. The next day, cells were washed using an ELX 405 (BioTek) with assay buffer; the final volume was then aspirated to 20 μL. Next, 20 μL of a 2.3 μM stock of Fluo-4/acetoxymethyl ester (Invitrogen, Carlsbad, CA), prepared as a 2.3 mM stock in DMSO and mixed in a 1:1 ratio with 10% (w/v) Pluronic F-127 and diluted in assay buffer, was added to the wells and the cell plates were incubated for 50 min at 37° C. and 5% CO2. Dye was removed by washing with the ELX 405 and the final volume was aspirated to 20 μL. Compound master plates were formatted in a 10 point concentration-response curve (CRC) format (1:3 dilutions) in 100% DMSO with a starting concentration of 10 or 1 mM using a BRAVO liquid handler (Agilent). Test compound CRCs were then transferred to daughter plates (240 nL) using the Echo acoustic plate reformatter (Labcyte, Sunnyvale, CA) and then diluted into assay buffer (40 μL) to a 2× stock using a Thermo Fisher Combi (Thermo Fisher Scientific, Waltham, MA).
Calcium flux was measured using the Functional Drug Screening System (FDSS) 6000 or 7000 (Hamamatsu Corporation, Tokyo, Japan) as an increase in the fluorescent static ratio. Compounds were applied to cells (20 μL, 2×) using the automated system of the FDSS at 2 seconds into the protocol and the data were collected at 1 Hz. At 143 s, 10 μL of an EC20 concentration of the muscarinic receptor agonist acetylcholine was added (5×), followed by the addition of 12 μL of an EC80 concentration of acetylcholine at the 268 s time point (5×). Agonist activity was analyzed as a concentration-dependent increase in calcium mobilization upon compound addition. Positive allosteric modulator activity was analyzed as a concentration-dependent increase in the EC20 acetylcholine response. Antagonist activity was analyzed as a concentration-dependent decrease in the EC80 acetylcholine response; for the purposes of the tables herein, an IC50 (inhibitory concentration 50) was calculated as a concentration-dependent decrease of the response elicited by an EC80 concentration of acetylcholine. Concentration-response curves were generated using a four-parameter logistical equation in XLFit curve fitting software (IDBS, Bridgewater, NJ) for Excel (Microsoft, Redmond, WA) or Prism (GraphPad Software, Inc., San Diego, CA) or the Dotmatics software platform (Dotmatics, Bishop's Stortford, UK).
Compounds were synthesized as described above. Activity (IC50 and Emin) was determined in the mAChR M4 cell-based functional assay as described above and the data are shown in Table 2.

Human M4 Emin (% ACh maximum at 30 μM) (% ACh maximum at 30 μM) [%]	IC50 [nM]	remaining activity at 30 µM (% ACh maximum at 30 μM) [%]	Structure (SMILES)
3	1.2		[2H]C([2H])([2H])C(=O)Nc1ccc(-c2ccc(N[C@H]3C[C@@H]4CN(C([2H])([2H])C5CCOCC5)C[C@@H]4C3)nn2)cc1 (single isomer, unassigned) [Compound B6]
	51	4	CC(=O)Nc1ccc(-c2ccc(N[C@H]3C[C@@H]4CN(Cc5cccc(F)c5)C[C@@H]4C3)nn2)cc1 [Compound A2, N-(4-(6-(((3aR,5s,6aS)-2-(3-fluorobenzyl)octahydrocyclopenta[c]pyrrol-5-yl)amino)pyridazin-3-yl)phenyl)acetamide]
	6.8	3	O=C(Nc1ccc(-c2ccc(N[C@H]3C[C@@H]4CN(CC5CCOCC5)C[C@@H]4C3)nn2)cc1)C1CC1 [Compound A26, N-(4-(6-(((3aR,5s,6aS)-2-((tetrahydro-2H-pyran-4-yl)methyl)octahydrocyclopenta[c]pyrrol-5-yl)amino)pyridazin-3-yl)phenyl)cyclopropanecarboxamide]
	12	5	CNC(=O)c1cccc(-c2ccc(N[C@H]3C[C@@H]4CN(CC5CCOCC5)C[C@@H]4C3)nn2)c1 [Compound A41, N-methyl-3-(6-(((3aR,5s,6aS)-2-((tetrahydro-2H-pyran-4-yl)methyl)octahydrocyclopenta[c]pyrrol-5-yl)amino)pyridazin-3-yl)benzamide]
	25	3	O=C(NC1CC1)c1cccc(-c2ccc(N[C@H]3C[C@@H]4CN(CC5CCOCC5)C[C@@H]4C3)nn2)c1 [Compound A28, N-cyclopropyl-3-(6-(((3aR,5s,6aS)-2-((tetrahydro-2H-pyran-4-yl)methyl)octahydrocyclopenta[c]pyrrol-5-yl)amino)pyridazin-3-yl)benzamide]
	2300	10	CC(=O)Nc1ccc(-c2ccc(N[C@H]3C[C@@H]4CN(Cc5cc(C)n(C)n5)C[C@@H]4C3)nn2)cc1 [Compound A5, N-(4-(6-(((3aR,5s,6aS)-2-((1,5-dimethyl-1H-pyrazol-3-yl)methyl)octahydrocyclopenta[c]pyrrol-5-yl)amino)pyridazin-3-yl)phenyl)acetamide]
	22	3	[2H]C([2H])(C1CCOCC1)N1C[C@H]2C[C@H](Nc3ccc(-c4cccc(C(=O)NC5CC5)c4)nn3)C[C@H]2C1 [Compound A33, N-cyclopropyl-3-(6-(((3aR,5s,6aS)-2-((tetrahydro-2H-pyran-4-yl)methyl-d2)octahydrocyclopenta[c]pyrrol-5-yl)amino)pyridazin-3-yl)benzamide]
	340	6	[2H]C([2H])([C@H]1CCCOC1)N1C[C@H]2C[C@H](Nc3ccc(-c4cc(F)cc(C(=O)NC)c4)nn3)C[C@H]2C1 [Compound A84, 3-fluoro-N-methyl-5-(6-(((3aR,5s,6aS)-2-(((R)-tetrahydro-2H-pyran-3-yl)methyl-d2)octahydrocyclopenta[c]pyrrol-5-yl)amino)pyridazin-3-yl)benzamide]
	200	6	CCNC(=O)c1ccccc1-c1ccc(N[C@H]2C[C@@H]3CN(CC4CCOCC4)C[C@@H]3C2)nn1 [Compound A58, N-ethyl-2-(6-(((3aR,5s,6aS)-2-((tetrahydro-2H-pyran-4-yl)methyl)octahydrocyclopenta[c]pyrrol-5-yl)amino)pyridazin-3-yl)benzamide]
	28	5	[2H]C([2H])(C1CCOCC1)N1C[C@H]2C[C@H](Nc3ccc(-c4cccc(C(=O)NC(C)C)c4)nn3)C[C@H]2C1 [Compound A72, N-isopropyl-3-(6-(((3aR,5s,6aS)-2-((tetrahydro-2H-pyran-4-yl)methyl-d2)octahydrocyclopenta[c]pyrrol-5-yl)amino)pyridazin-3-yl)benzamide]
	170	6	[2H]C([2H])(C1CCOCC1)N1C[C@H]2C[C@H](Nc3ccc(-c4ccccc4C(=O)NCC)nn3)C[C@H]2C1 [Compound A59, N-ethyl-2-(6-(((3aR,5s,6aS)-2-((tetrahydro-2H-pyran-4-yl)methyl-d2)octahydrocyclopenta[c]pyrrol-5-yl)amino)pyridazin-3-yl)benzamide]
	67	4	CCC(=O)Nc1ccccc1-c1ccc(N[C@H]2C[C@@H]3CN(CC4CCOCC4)C[C@@H]3C2)nn1 [Compound A44, N-(2-(6-(((3aR,5s,6aS)-2-((tetrahydro-2H-pyran-4-yl)methyl)octahydrocyclopenta[c]pyrrol-5-yl)amino)pyridazin-3-yl)phenyl)propionamide]
	85	4	O=C(Nc1cc(F)c(F)c(-c2ccc(N[C@H]3C[C@@H]4CN(CC5CCOCC5)C[C@@H]4C3)nn2)c1)C1(F)CC1 [Compound A12, N-(3,4-difluoro-5-(6-(((3aR,5s,6aS)-2-((tetrahydro-2H-pyran-4-yl)methyl)octahydrocyclopenta[c]pyrrol-5-yl)amino)pyridazin-3-yl)phenyl)-1-fluorocyclopropane-1-carboxamide]
	84	5	[2H]C([2H])([C@@H]1CCCOC1)N1C[C@H]2C[C@H](Nc3ccc(-c4cc(F)cc(C(=O)NC)c4)nn3)C[C@H]2C1 [Compound A85, 3-fluoro-N-methyl-5-(6-(((3aR,5s,6aS)-2-(((S)-tetrahydro-2H-pyran-3-yl)methyl-d2)octahydrocyclopenta[c]pyrrol-5-yl)amino)pyridazin-3-yl)benzamide]
	13	4	CCNC(=O)c1cccc(-c2ccc(N[C@H]3C[C@@H]4CN(CC5CCOCC5)C[C@@H]4C3)nn2)c1 [Compound A43, N-ethyl-3-(6-(((3aR,5s,6aS)-2-((tetrahydro-2H-pyran-4-yl)methyl)octahydrocyclopenta[c]pyrrol-5-yl)amino)pyridazin-3-yl)benzamide]
	37	4	CCN(CC)C(=O)c1ccc(-c2ccc(N[C@H]3C[C@@H]4CN(CC5CCOCC5)C[C@@H]4C3)nn2)cc1 [Compound A24, N,N-diethyl-4-(6-(((3aR,5s,6aS)-2-((tetrahydro-2H-pyran-4-yl)methyl)octahydrocyclopenta[c]pyrrol-5-yl)amino)pyridazin-3-yl)benzamide]
	180	6	CNC(=O)c1ccccc1-c1ccc(N[C@H]2C[C@@H]3CN(CC4CCOCC4)C[C@@H]3C2)nn1 [Compound A45, N-methyl-2-(6-(((3aR,5s,6aS)-2-((tetrahydro-2H-pyran-4-yl)methyl)octahydrocyclopenta[c]pyrrol-5-yl)amino)pyridazin-3-yl)benzamide]
